± gives the expanded uncertainty stated by the source.
Assay: xn = mol fraction of the nth substance listed

CC(C)=O [acetone] + O=C=O
Details	mass density [kg/m3]
323.15 K, 11950 kPa, Fluid (supercritical or subcritical phases), x2 = 0.811	807 ± 5
323.15 K, 12030 kPa, Fluid (supercritical or subcritical phases), x2 = 0.902	754 ± 5
323.15 K, 12090 kPa, Fluid (supercritical or subcritical phases), x2 = 0.948	711 ± 4
323.15 K, 12200 kPa, Fluid (supercritical or subcritical phases), x2 = 0.933	731 ± 5
323.15 K, 12260 kPa, Fluid (supercritical or subcritical phases), x2 = 0.882	779 ± 5
323.15 K, 12300 kPa, Fluid (supercritical or subcritical phases), x2 = 0.902	757 ± 5
323.15 K, 12370 kPa, Fluid (supercritical or subcritical phases), x2 = 0.772	818 ± 5
323.15 K, 12400 kPa, Fluid (supercritical or subcritical phases), x2 = 0.952	710 ± 4
323.15 K, 12560 kPa, Fluid (supercritical or subcritical phases), x2 = 0.811	813 ± 5
323.15 K, 12620 kPa, Fluid (supercritical or subcritical phases), x2 = 0.902	762 ± 5
323.15 K, 12620 kPa, Fluid (supercritical or subcritical phases), x2 = 0.933	740 ± 5
323.15 K, 12680 kPa, Fluid (supercritical or subcritical phases), x2 = 0.186	788 ± 5
323.15 K, 12750 kPa, Fluid (supercritical or subcritical phases), x2 = 0.948	727 ± 5
323.15 K, 12960 kPa, Fluid (supercritical or subcritical phases), x2 = 0.902	769 ± 5
323.15 K, 12970 kPa, Fluid (supercritical or subcritical phases), x2 = 0.882	785 ± 5
323.15 K, 13090 kPa, Fluid (supercritical or subcritical phases), x2 = 0.811	818 ± 5
323.15 K, 13130 kPa, Fluid (supercritical or subcritical phases), x2 = 0.772	823 ± 5
323.15 K, 13130 kPa, Fluid (supercritical or subcritical phases), x2 = 0.933	748 ± 5
323.15 K, 13170 kPa, Fluid (supercritical or subcritical phases), x2 = 0.952	726 ± 5
323.15 K, 13190 kPa, Fluid (supercritical or subcritical phases), x2 = 0.576	829 ± 5
323.15 K, 13240 kPa, Fluid (supercritical or subcritical phases), x2 = 0.902	771 ± 5
323.15 K, 13450 kPa, Fluid (supercritical or subcritical phases), x2 = 0.902	775 ± 5
323.15 K, 13560 kPa, Fluid (supercritical or subcritical phases), x2 = 0.383	813 ± 5
323.15 K, 13560 kPa, Fluid (supercritical or subcritical phases), x2 = 0.882	791 ± 5
323.15 K, 13610 kPa, Fluid (supercritical or subcritical phases), x2 = 0.811	821 ± 5
323.15 K, 13640 kPa, Fluid (supercritical or subcritical phases), x2 = 0.948	744 ± 5
323.15 K, 13700 kPa, Fluid (supercritical or subcritical phases), x2 = 0.933	758 ± 5
323.15 K, 13770 kPa, Fluid (supercritical or subcritical phases), x2 = 0.902	776 ± 5
323.15 K, 13790 kPa, Fluid (supercritical or subcritical phases), x2 = 0.772	827 ± 5
323.15 K, 14080 kPa, Fluid (supercritical or subcritical phases), x2 = 0.186	789 ± 5
323.15 K, 14080 kPa, Fluid (supercritical or subcritical phases), x2 = 0.952	744 ± 5
323.15 K, 14100 kPa, Fluid (supercritical or subcritical phases), x2 = 0.902	781 ± 5
323.15 K, 14290 kPa, Fluid (supercritical or subcritical phases), x2 = 0.933	767 ± 5
323.15 K, 14430 kPa, Fluid (supercritical or subcritical phases), x2 = 0.902	785 ± 5
323.15 K, 14460 kPa, Fluid (supercritical or subcritical phases), x2 = 0.811	826 ± 5
323.15 K, 14550 kPa, Fluid (supercritical or subcritical phases), x2 = 0.772	831 ± 5
323.15 K, 14550 kPa, Fluid (supercritical or subcritical phases), x2 = 0.882	800 ± 5
323.15 K, 14590 kPa, Fluid (supercritical or subcritical phases), x2 = 0.952	751 ± 5
323.15 K, 14730 kPa, Fluid (supercritical or subcritical phases), x2 = 0.948	762 ± 5
323.15 K, 14780 kPa, Fluid (supercritical or subcritical phases), x2 = 0.902	789 ± 5
323.15 K, 14810 kPa, Fluid (supercritical or subcritical phases), x2 = 0.383	817 ± 5
323.15 K, 14920 kPa, Fluid (supercritical or subcritical phases), x2 = 0.933	777 ± 5
323.15 K, 14950 kPa, Fluid (supercritical or subcritical phases), x2 = 0.186	791 ± 5
323.15 K, 15040 kPa, Fluid (supercritical or subcritical phases), x2 = 0.576	834 ± 5
323.15 K, 15140 kPa, Fluid (supercritical or subcritical phases), x2 = 0.902	792 ± 5
323.15 K, Liquid, Other PVT measurement, x2 = 0.186	760 ± 2
323.15 K, Liquid, Other PVT measurement, x2 = 0.383	787 ± 2
323.15 K, Liquid, Other PVT measurement, x2 = 0.576	795 ± 2
323.15 K, Liquid, Other PVT measurement, x2 = 0.772	779 ± 2
323.15 K, Liquid, Other PVT measurement, x2 = 0.811	758 ± 2
323.15 K, Liquid, Other PVT measurement, x2 = 0.882	701 ± 2
323.15 K, Liquid, Other PVT measurement, x2 = 0.902	672 ± 2
323.15 K, Liquid, Other PVT measurement, x2 = 0.933	584 ± 2
326.65 K, 9160 kPa, Fluid (supercritical or subcritical phases), x2 = 0.933	528 ± 3
326.65 K, 9180 kPa, Fluid (supercritical or subcritical phases), x2 = 0.933	531 ± 3

From the NIST ThermoML archive (doi:10.1021/je034087q)
